In patent US20250145665A1, “MACROCYCLIC PEPTIDES USEFUL AS MODULATORS OF TNF ALPHA” (Bristol-Myers Squibb Company, priority 2023, published 2025):
pIC50: −log10 of the molar value. Starred links: 1 amine or outer side, 2 acyl side, 3 side chain; linkers in the order of their positions; H or OH if unused. Positions of bridges follow the written chain, without caps; N, C: chain ends. Non-standard residues stand in square brackets, D forms with d. Residues, ends and D or L forms follow the SMILES beside them. *: point of attachment. Bip(4'-NHCO-C6H4-3-CH2COOH) = N[C@@H](Cc1ccc(-c2ccc(NC(=O)c3cccc(CC(=O)O)c3)cc2)cc1)C(=O)O; Bip(4'-NHCO-C6H4-4-CH2COOH) = N[C@@H](Cc1ccc(-c2ccc(NC(=O)c3ccc(CC(=O)O)cc3)cc2)cc1)C(=O)O; Bip(4'-(3-HOOC-benzamido)) = N[C@@H](Cc1ccc(-c2ccc(NC(=O)c3cccc(C(=O)O)c3)cc2)cc1)C(=O)O; Bip(4'-NH) = O=C([C@H](Cc1ccc(-c2ccc(N[*:3])cc2)cc1)N[*:1])[*:2]; Bip(4'-CONHMe) = CNC(=O)c1ccc(-c2ccc(C[C@H](N)C(=O)O)cc2)cc1; Bip(4'-COOH) = N[C@@H](Cc1ccc(-c2ccc(C(=O)O)cc2)cc1)C(=O)O; Bip(4'-NHAc) = CC(=O)Nc1ccc(-c2ccc(C[C@H](N)C(=O)O)cc2)cc1; Indole3carbonyl(1-CH2COOH) = O=C(O)Cn1cc(C(=O)*)c2ccccc21; dArg(ω-Bn) = N=C(NCCC[C@@H](N)C(=O)O)NCc1ccccc1; Ala(morpholin-4-yl) = N[C@@H](CN1CCOCC1)C(=O)O; Benzoyl(3-OCH2COOH) = O=C(O)COc1cccc(C(=O)*)c1; Phe(3-CONH2) = NC(=O)c1cccc(C[C@H](N)C(=O)O)c1; Bip = N[C@@H](Cc1ccc(-c2ccccc2)cc1)C(=O)O; Ala(2-furyl) = N[C@@H](Cc1ccco1)C(=O)O; Tiq1c(1S) = O=C(O)[C@H]1NCCc2ccccc21; Val(3-OH) = CC(C)(O)[C@H](N)C(=O)O; 2Pal = N[C@@H](Cc1ccccn1)C(=O)O; Tic = O=C(O)[C@@H]1Cc2ccccc2CN1; Cha = N[C@@H](CC1CCCCC1)C(=O)O; Chg = N[C@H](C(=O)O)C1CCCCC1; Sar = CNCC(=O)O

target: TNFα (Homo sapiens, UniProt P01375); test: TNF-Induced HEK-Blue Assay; assay type: cell-based; details: not given
Sequence (P01375 77-233 limits assumed): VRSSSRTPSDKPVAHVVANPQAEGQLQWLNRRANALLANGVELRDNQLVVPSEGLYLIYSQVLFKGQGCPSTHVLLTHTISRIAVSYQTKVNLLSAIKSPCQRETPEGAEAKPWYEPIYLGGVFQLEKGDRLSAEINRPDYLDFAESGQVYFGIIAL

| Structure (SMILES) | pIC50 |
| --- | --- |
| CC(C)C[C@@H]1NC(=O)[C@H](Cc2ccc(O)cc2)NC(=O)[C@H](C(C)C)NC(=O)[C@@H]2CCCN2C(=O)[C@H](C(C)C)NC(=O)[C@@H](CCCNC(=N)NCc2ccccc2)NC(=O)[C@H](CC(=O)O)NC(=O)[C@@H]2CCCN2C(=O)CN(C)C(=O)[C@H](Cc2ccc(-c3ccc(NC(=O)c4cn(CC(=O)O)c5ccccc45)cc3)cc2)NC(=O)[C@H](Cc2ccc(-c3ccccc3)cc2)NC(=O)[C@H](CN2CCOCC2)NC(=O)CSC[C@@H](C(=O)NCC(N)=O)NC1=O [Example 531] ({CH2CO}-[Ala(morpholin-4-yl)][Bip][Bip(4'-NH)](Indole3carbonyl(1-CH2COOH))[Sar]PD[dArg(ω-Bn)]VPVYLCG-NH2; thioether N-13) | > 7.30 |
| CC[C@H](C)[C@@H]1NC(=O)[C@@H](CCCNC(=N)NCc2ccccc2)NC(=O)[C@H](CC(=O)O)NC(=O)[C@@H]2CCCN2C(=O)CN(C)C(=O)[C@H](Cc2ccc(-c3ccc(NC(=O)c4cn(CC(=O)O)c5ccccc45)cc3)cc2)NC(=O)[C@H](Cc2ccc(-c3ccccc3)cc2)NC(=O)[C@H](CN2CCOCC2)NC(=O)CSC[C@@H](C(=O)NCC(N)=O)NC(=O)[C@H](CC(C)C)NC(=O)[C@H](Cc2cnc[nH]2)NC(=O)[C@H](C(C)C)NC(=O)[C@@H]2CCCN2C1=O [Example 533] ({CH2CO}-[Ala(morpholin-4-yl)][Bip][Bip(4'-NH)](Indole3carbonyl(1-CH2COOH))[Sar]PD[dArg(ω-Bn)]IPVHLCG-NH2; thioether N-13) | > 7.30 |
| CC(C)C[C@@H]1NC(=O)[C@H](Cc2cccc(C(N)=O)c2)NC(=O)[C@H](C(C)C)NC(=O)[C@@H]2CCCN2C(=O)[C@H](C(C)C)NC(=O)[C@@H](CCCNC(=N)NCc2ccccc2)NC(=O)[C@H](CC(=O)O)NC(=O)[C@@H]2CCCN2C(=O)CN(C)C(=O)[C@H](Cc2ccc(-c3ccc(NC(=O)c4cn(CC(=O)O)c5ccccc45)cc3)cc2)NC(=O)[C@H](Cc2ccc(-c3ccccc3)cc2)NC(=O)[C@H](CN2CCOCC2)NC(=O)CSC[C@@H](C(=O)NCC(N)=O)NC1=O [Example 535] ({CH2CO}-[Ala(morpholin-4-yl)][Bip][Bip(4'-NH)](Indole3carbonyl(1-CH2COOH))[Sar]PD[dArg(ω-Bn)]VPV[Phe(3-CONH2)]LCG-NH2; thioether N-13) | > 7.30 |

same assay, conditions: HEK-Blue-CD40L cells, NF-kB-driven secreted alkaline phosphatase reporter; TNFα 0.5 ng/ml; 18 h; read-out: TNF induced HEK-Blue assay IC50 value

| pIC50 | Structure (SMILES) |
| --- | --- |
| > 7.30 | CC[C@H](C)[C@@H]1NC(=O)[C@@H](CCCNC(=N)N)NC(=O)[C@H](CC(=O)O)NC(=O)[C@H](Cc2cnc[nH]2)NC(=O)CN(C)C(=O)[C@H](Cc2ccc(-c3ccc(NC(=O)c4cccc(OCC(=O)O)c4)cc3)cc2)NC(=O)[C@H](Cc2ccc(-c3ccccc3)cc2)NC(=O)[C@H](CC2CCCCC2)NC(=O)CSC[C@@H](C(=O)NCC(N)=O)NC(=O)[C@H](CC(C)C)NC(=O)[C@H](Cc2c[nH]cn2)NC(=O)[C@H](C(C)C)NC(=O)[C@@H]2Cc3ccccc3CN2C1=O [Example 515] ({CH2CO}-[Cha][Bip][Bip(4'-NH)](Benzoyl(3-OCH2COOH))[Sar]HD[dR]I[Tic]VHLCG-NH2; thioether N-13) |
| > 7.30 | CC[C@H](C)[C@@H]1NC(=O)[C@@H](CCCNC(=N)N)NC(=O)[C@H](CC(=O)O)NC(=O)[C@H](Cc2cnc[nH]2)NC(=O)CN(C)C(=O)[C@H](Cc2ccc(-c3ccc(NC(=O)c4cccc(OCC(=O)O)c4)cc3)cc2)NC(=O)[C@H](Cc2ccc(-c3ccccc3)cc2)NC(=O)[C@H](CC2CCCCC2)NC(=O)CSC[C@@H](C(=O)NCC(N)=O)NC(=O)[C@H](CC(C)C)NC(=O)[C@H](Cc2c[nH]cn2)NC(=O)[C@H](C(C)C)NC(=O)[C@@H]2c3ccccc3CCN2C1=O [Example 516] ({CH2CO}-[Cha][Bip][Bip(4'-NH)](Benzoyl(3-OCH2COOH))[Sar]HD[dR]I[Tiq1c(1S)]VHLCG-NH2; thioether N-13) |
| 6.70 to 7.30 | CC(=O)Nc1ccc(-c2ccc(C[C@@H]3NC(=O)[C@H](Cc4ccc(-c5ccccc5)cc4)NC(=O)[C@H](C(C)(C)O)NC(=O)CSC[C@@H](C(=O)NCC(N)=O)NC(=O)[C@H](CC(C)C)NC(=O)[C@H](Cc4cnc[nH]4)NC(=O)[C@H](C(C)C)NC(=O)[C@@H]4CCCN4C(=O)[C@H](C(C)C)NC(=O)[C@@H](CCCNC(=N)N)NC(=O)[C@H](CC(=O)O)NC(=O)[C@H](Cc4ccccn4)NC(=O)CN(C)C3=O)cc2)cc1 [Example 518] ({CH2CO}-[Val(3-OH)][Bip][Bip(4'-NHAc)][Sar][2Pal]D[dR]VPVHLCG-NH2; thioether N-13) |
| 6.70 to 7.30 | CC(=O)Nc1ccc(-c2ccc(C[C@@H]3NC(=O)[C@H](Cc4ccc(-c5ccccc5)cc4)NC(=O)[C@H](CN4CCOCC4)NC(=O)CSC[C@@H](C(=O)NCC(N)=O)NC(=O)[C@H](CC(C)C)NC(=O)[C@H](Cc4cnc[nH]4)NC(=O)[C@H](C(C)C)NC(=O)[C@@H]4CCCN4C(=O)[C@H](C(C)C)NC(=O)[C@@H](CCCNC(=N)N)NC(=O)[C@H](CC(=O)O)NC(=O)[C@H](Cc4ccco4)NC(=O)CN(C)C3=O)cc2)cc1 [Example 519] ({CH2CO}-[Ala(morpholin-4-yl)][Bip][Bip(4'-NHAc)][Sar][Ala(2-furyl)]D[dR]VPVHLCG-NH2; thioether N-13) |
| > 7.30 | CC(=O)Nc1ccc(-c2ccc(C[C@@H]3NC(=O)[C@H](Cc4ccc(-c5ccc(C(=O)O)cc5)cc4)NC(=O)[C@H](CN4CCOCC4)NC(=O)CSC[C@@H](C(=O)NCC(N)=O)NC(=O)[C@H](CC(C)C)NC(=O)[C@H](Cc4cnc[nH]4)NC(=O)[C@H](C(C)C)NC(=O)[C@@H]4CCCN4C(=O)[C@H](C(C)C)NC(=O)[C@@H](CCCNC(=N)N)NC(=O)[C@H](CC(=O)O)NC(=O)[C@H](Cc4ccco4)NC(=O)CN(C)C3=O)cc2)cc1 [Example 520] ({CH2CO}-[Ala(morpholin-4-yl)][Bip(4'-COOH)][Bip(4'-NHAc)][Sar][Ala(2-furyl)]D[dR]VPVHLCG-NH2; thioether N-13) |
| > 7.30 | CC[C@H](C)[C@@H]1NC(=O)[C@@H](CCCNC(=N)N)NC(=O)[C@H](CC(=O)O)NC(=O)[C@H](Cc2ccccn2)NC(=O)CN(C)C(=O)[C@H](Cc2ccc(-c3ccc(NC(C)=O)cc3)cc2)NC(=O)[C@H](Cc2ccc(-c3ccccc3)cc2)NC(=O)[C@H](CN2CCOCC2)NC(=O)CSC[C@@H](C(=O)NCC(N)=O)NC(=O)[C@H](CC(C)C)NC(=O)[C@H](Cc2cnc[nH]2)NC(=O)[C@H](C(C)C)NC(=O)[C@@H]2CCCN2C1=O [Example 522] ({CH2CO}-[Ala(morpholin-4-yl)][Bip][Bip(4'-NHAc)][Sar][2Pal]D[dR]IPVHLCG-NH2; thioether N-13) |
| 6.70 to 7.30 | CC(=O)Nc1ccc(-c2ccc(C[C@@H]3NC(=O)[C@H](Cc4ccc(-c5ccccc5)cc4)NC(=O)[C@H](CN4CCOCC4)NC(=O)CSC[C@@H](C(=O)NCC(N)=O)NC(=O)[C@H](CC(C)C)NC(=O)[C@H](Cc4c[nH]cn4)NC(=O)[C@H](C4CCCCC4)NC(=O)[C@@H]4CCCN4C(=O)[C@H](C(C)C)NC(=O)[C@@H](CCCNC(=N)N)NC(=O)[C@H](CC(=O)O)NC(=O)[C@H](Cc4ccco4)NC(=O)CN(C)C3=O)cc2)cc1 [Example 524] ({CH2CO}-[Ala(morpholin-4-yl)][Bip][Bip(4'-NHAc)][Sar][Ala(2-furyl)]D[dR]VP[Chg]HLCG-NH2; thioether N-13) |
| > 7.30 | CC(C)C[C@@H]1NC(=O)[C@H](Cc2cnc[nH]2)NC(=O)[C@H](C(C)C)NC(=O)[C@@H]2CCCN2C(=O)[C@H](C(C)C)NC(=O)[C@@H](CCCNC(=N)N)NC(=O)[C@H](CC(=O)O)NC(=O)[C@H](Cc2cnc[nH]2)NC(=O)CN(C)C(=O)[C@H](Cc2ccc(-c3ccc(NC(=O)c4ccc(CC(=O)O)cc4)cc3)cc2)NC(=O)[C@H](Cc2ccc(-c3ccccc3)cc2)NC(=O)[C@H](CC2CCCCC2)NC(=O)CSC[C@@H](C(=O)NCC(N)=O)NC1=O [Example 526] ({CH2CO}-[Cha][Bip][Bip(4'-NHCO-C6H4-4-CH2COOH)][Sar]HD[dR]VPVHLCG-NH2; thioether N-13) |
| > 7.30 | CC[C@H](C)[C@@H]1NC(=O)[C@@H](CCCNC(=N)N)NC(=O)[C@H](CC(=O)O)NC(=O)[C@H](Cc2cnc[nH]2)NC(=O)CN(C)C(=O)[C@H](Cc2ccc(-c3ccc(NC(=O)c4cccc(CC(=O)O)c4)cc3)cc2)NC(=O)[C@H](Cc2ccc(-c3ccc(C(=O)NC)cc3)cc2)NC(=O)[C@H](CC2CCCCC2)NC(=O)CSC[C@@H](C(=O)NCC(N)=O)NC(=O)[C@H](CC(C)C)NC(=O)[C@H](Cc2cnc[nH]2)NC(=O)[C@H](C(C)C)NC(=O)[C@@H]2CCCN2C1=O [Example 527] ({CH2CO}-[Cha][Bip(4'-CONHMe)][Bip(4'-NHCO-C6H4-3-CH2COOH)][Sar]HD[dR]IPVHLCG-NH2; thioether N-13) |
| > 7.30 | CC[C@H](C)[C@@H]1NC(=O)[C@@H](CCCNC(=N)N)NC(=O)[C@H](CC(=O)O)NC(=O)[C@H](Cc2cnc[nH]2)NC(=O)CN(C)C(=O)[C@H](Cc2ccc(-c3ccc(NC(=O)c4ccc(CC(=O)O)cc4)cc3)cc2)NC(=O)[C@H](Cc2ccc(-c3ccc(C(=O)NC)cc3)cc2)NC(=O)[C@H](CC2CCCCC2)NC(=O)CSC[C@@H](C(=O)NCC(N)=O)NC(=O)[C@H](CC(C)C)NC(=O)[C@H](Cc2cnc[nH]2)NC(=O)[C@H](C(C)C)NC(=O)[C@@H]2CCCN2C1=O [Example 528] ({CH2CO}-[Cha][Bip(4'-CONHMe)][Bip(4'-NHCO-C6H4-4-CH2COOH)][Sar]HD[dR]IPVHLCG-NH2; thioether N-13) |
| > 7.30 | CC[C@H](C)[C@@H]1NC(=O)[C@@H](CCCNC(=N)N)NC(=O)[C@H](CC(=O)O)NC(=O)[C@H](Cc2cnc[nH]2)NC(=O)CN(C)C(=O)[C@H](Cc2ccc(-c3ccc(NC(=O)c4cccc(C(=O)O)c4)cc3)cc2)NC(=O)[C@H](Cc2ccc(-c3ccc(C(=O)O)cc3)cc2)NC(=O)[C@H](CC2CCCCC2)NC(=O)CSC[C@@H](C(=O)NCC(N)=O)NC(=O)[C@H](CC(C)C)NC(=O)[C@H](Cc2cnc[nH]2)NC(=O)[C@H](C(C)C)NC(=O)[C@@H]2CCCN2C1=O [Example 530] ({CH2CO}-[Cha][Bip(4'-COOH)][Bip(4'-(3-HOOC-benzamido))][Sar]HD[dR]IPVHLCG-NH2; thioether N-13) |
